The values below come from ChEMBL document CHEMBL5346877, “A-ring-fused pyrazoles of dihydrotestosterone targeting prostate cancer cells via the downregulation of the androgen receptor” (Eur J Med Chem, 2023).

Calls of active or inactive are those of the source. No cut-off for these calls is given here.

One experiment deals with LAPC4. In words: Cytotoxicity against human LAPC4 cells assessed as cell viability at 20 uM incubated for 72 hrs by resazurin dye based microplate reader assay. In kind it is functional. The following applies: read-out: Activity. On the technique in general: The colour change of resazurin is a common sign of viable cells or microbes.
With `Cn1nc2c(c1-c1ccc(F)cc1)C[C@@]1(C)[C@@H](CC[C@@H]3[C@@H]1CC[C@]1(C)C(=O)CC[C@@H]31)C2`, the viability at 20 µM was 29%.

With `Cc1c2c(nn1C)C[C@@H]1CC[C@@H]3[C@H](CC[C@]4(C)C(=O)CC[C@@H]34)[C@@]1(C)C2`, the viability at 20 µM was 53%.

With `C[C@]12Cc3cn(-c4ccc([N+](=O)[O-])cc4)nc3C[C@@H]1CC[C@@H]1[C@@H]2CC[C@]2(C)[C@@H](O)CC[C@@H]12`, the viability at 20 µM was found to be 96%.

Regarding `Cn1nc2c(c1-c1ccc(F)cc1)C[C@@]1(C)[C@@H](CC[C@@H]3[C@@H]1CC[C@]1(C)[C@@H](O)CC[C@@H]31)C2`, the viability at 20 µM came out at 44%.

Consider `C[C@]12Cc3cn(-c4ccccc4)nc3C[C@@H]1CC[C@@H]1[C@@H]2CC[C@]2(C)[C@@H](O)CC[C@@H]12`, for which the viability at 20 µM came out at 100%.

For another experiment, the system named is LAPC4. The experiment is described as follows: Downregulation of PSA protein expression in human LAPC4 cells at 10 uM incubated for 24 hrs by immunoblotting analysis. The format is functional, cell-based.
Settings: not given
For `Cc1c2c(nn1C)C[C@@H]1CC[C@@H]3[C@H](CC[C@]4(C)C(=O)CC[C@@H]34)[C@@]1(C)C2`, the result was inactive.

Consider `C[C@]12Cc3cn(-c4ccc([N+](=O)[O-])cc4)nc3C[C@@H]1CC[C@@H]1[C@@H]2CC[C@]2(C)[C@@H](O)CC[C@@H]12`, for which the outcome was inactive.

On to `C[C@]12Cc3cn(-c4ccccc4)nc3C[C@@H]1CC[C@@H]1[C@@H]2CC[C@]2(C)[C@@H](O)CC[C@@H]12`, for which the result was inactive.

The next experiment has as its system CWR22R. In words: Cytotoxicity against human 22Rv1 cells assessed as cell viability at 20 uM incubated for 72 hrs by resazurin dye based microplate reader assay. To be noted: read-out: Activity. In kind it is functional.
`Cn1nc2c(c1-c1ccc(F)cc1)C[C@@]1(C)[C@@H](CC[C@@H]3[C@@H]1CC[C@]1(C)C(=O)CC[C@@H]31)C2`: the viability at 20 µM worked out at 57%.

Regarding `Cc1c2c(nn1C)C[C@@H]1CC[C@@H]3[C@H](CC[C@]4(C)C(=O)CC[C@@H]34)[C@@]1(C)C2`, the viability at 20 µM stood at 103%.

Take `C[C@]12Cc3cn(-c4ccc([N+](=O)[O-])cc4)nc3C[C@@H]1CC[C@@H]1[C@@H]2CC[C@]2(C)[C@@H](O)CC[C@@H]12`: the viability at 20 µM is no less than 100%.

Consider `Cn1nc2c(c1-c1ccc(F)cc1)C[C@@]1(C)[C@@H](CC[C@@H]3[C@@H]1CC[C@]1(C)[C@@H](O)CC[C@@H]31)C2`, for which the viability at 20 µM was 26%.

Consider `C[C@]12Cc3cn(-c4ccccc4)nc3C[C@@H]1CC[C@@H]1[C@@H]2CC[C@]2(C)[C@@H](O)CC[C@@H]12`, for which the viability at 20 µM is no less than 100%.

Another experiment has as its system LAPC4. The experiment is described as follows: Downregulation of Nkx3.1 protein expression in human LAPC4 cells at 10 uM incubated for 24 hrs by immunoblotting analysis. The format is functional, cell-based.
Settings: not given
(A western blot detects proteins with antibodies after separation by electrophoresis.)
Take `Cc1c2c(nn1C)C[C@@H]1CC[C@@H]3[C@H](CC[C@]4(C)C(=O)CC[C@@H]34)[C@@]1(C)C2`: the result was inactive.

As for `C[C@]12Cc3cn(-c4ccc([N+](=O)[O-])cc4)nc3C[C@@H]1CC[C@@H]1[C@@H]2CC[C@]2(C)[C@@H](O)CC[C@@H]12`, the outcome was inactive.

On to `C[C@]12Cc3cn(-c4ccccc4)nc3C[C@@H]1CC[C@@H]1[C@@H]2CC[C@]2(C)[C@@H](O)CC[C@@H]12`, for which the outcome was inactive.

The subject of another experiment is LAPC4. In words: Inhibition of colony formation in human LAPC4 cells at 5 uM incubated for 10 days by crystal violet staining based assay. In kind it is functional, cell-based. To be noted: time 10.0 day.
Consider `Cn1nc2c(c1-c1ccc(F)cc1)C[C@@]1(C)[C@@H](CC[C@@H]3[C@@H]1CC[C@]1(C)C(=O)CC[C@@H]31)C2`, for which the inhibition (in general, the relative decrease from the control value, in per cent) was “Active”.

`Cn1nc2c(c1-c1ccc(F)cc1)C[C@@]1(C)[C@@H](CC[C@@H]3[C@@H]1CC[C@]1(C)[C@@H](O)CC[C@@H]31)C2`: the inhibition entry is “Active”.

System in the next experiment: not listed separately
In words: Downregulation of AR protein expression in human LAPC4 cells assessed as AR levels at 10 uM incubated for 24 hrs by immunoblotting analysis.
Settings: not given
In kind it is functional.
As to `Cn1nc2c(c1-c1ccc(F)cc1)C[C@@]1(C)[C@@H](CC[C@@H]3[C@@H]1CC[C@]1(C)C(=O)CC[C@@H]31)C2`, the Activity was found to be 100%.

Turning to `Cc1c2c(nn1C)C[C@@H]1CC[C@@H]3[C@H](CC[C@]4(C)C(=O)CC[C@@H]34)[C@@]1(C)C2`, the Activity was found to be 86%.

With `C[C@]12Cc3cn(-c4ccc([N+](=O)[O-])cc4)nc3C[C@@H]1CC[C@@H]1[C@@H]2CC[C@]2(C)[C@@H](O)CC[C@@H]12`, the Activity entry is on record as “>=100%”.

For the compound `Cn1nc2c(c1-c1ccc(F)cc1)C[C@@]1(C)[C@@H](CC[C@@H]3[C@@H]1CC[C@]1(C)[C@@H](O)CC[C@@H]31)C2`, the Activity is given as 83%.

`C[C@]12Cc3cn(-c4ccccc4)nc3C[C@@H]1CC[C@@H]1[C@@H]2CC[C@]2(C)[C@@H](O)CC[C@@H]12`: the Activity entry was “>=100%”.

For a further experiment, the system named is DU-145. The experiment is described as follows: Cytotoxicity against human DU-145 cells assessed as cell viability at 20 uM incubated for 72 hrs by resazurin dye based microplate reader assay. To be noted: read-out: Activity. In kind it is functional.
Consider `Cn1nc2c(c1-c1ccc(F)cc1)C[C@@]1(C)[C@@H](CC[C@@H]3[C@@H]1CC[C@]1(C)C(=O)CC[C@@H]31)C2`, for which the viability at 20 µM was 90%.

As to `Cc1c2c(nn1C)C[C@@H]1CC[C@@H]3[C@H](CC[C@]4(C)C(=O)CC[C@@H]34)[C@@]1(C)C2`, the viability at 20 µM is no less than 100%.

As for `C[C@]12Cc3cn(-c4ccc([N+](=O)[O-])cc4)nc3C[C@@H]1CC[C@@H]1[C@@H]2CC[C@]2(C)[C@@H](O)CC[C@@H]12`, the viability at 20 µM was determined as 99%.

In the case of `Cn1nc2c(c1-c1ccc(F)cc1)C[C@@]1(C)[C@@H](CC[C@@H]3[C@@H]1CC[C@]1(C)[C@@H](O)CC[C@@H]31)C2`, the viability at 20 µM was 89%.

Turning to `C[C@]12Cc3cn(-c4ccccc4)nc3C[C@@H]1CC[C@@H]1[C@@H]2CC[C@]2(C)[C@@H](O)CC[C@@H]12`, the viability at 20 µM is no less than 100%.

For another experiment, the system named is LAPC4. The experiment is described as follows: Inhibition of colony formation in human LAPC4 cells at 10 uM incubated for 10 days by crystal violet staining based assay. In kind it is functional. The following applies: LAPC4, 240 h, time 10 day.
With `Cn1nc2c(c1-c1ccc(F)cc1)C[C@@]1(C)[C@@H](CC[C@@H]3[C@@H]1CC[C@]1(C)C(=O)CC[C@@H]31)C2`, at 10 µM the inhibition was 17%.

For the compound `Cc1c2c(nn1C)C[C@@H]1CC[C@@H]3[C@H](CC[C@]4(C)C(=O)CC[C@@H]34)[C@@]1(C)C2`, the inhibition at 10 µM came out at 67%.

`C[C@]12Cc3cn(-c4ccc([N+](=O)[O-])cc4)nc3C[C@@H]1CC[C@@H]1[C@@H]2CC[C@]2(C)[C@@H](O)CC[C@@H]12` showed an inhibition at 10 µM of 93%.

As for `Cn1nc2c(c1-c1ccc(F)cc1)C[C@@]1(C)[C@@H](CC[C@@H]3[C@@H]1CC[C@]1(C)[C@@H](O)CC[C@@H]31)C2`, the inhibition at 10 µM stood at 16%.

Compound `C[C@]12Cc3cn(-c4ccccc4)nc3C[C@@H]1CC[C@@H]1[C@@H]2CC[C@]2(C)[C@@H](O)CC[C@@H]12` had an inhibition at 10 µM of 59%.
